Assay results: patent US20220064141A1, “BENZOPYRIDONE HETEROCYCLIC COMPOUND AND USE THEREOF” (BrightGene Bio-Medical Technology Co., Ltd., priority 2019, published 2022)

Experiments:
Type in all cases: cell-based
[1] = tested on: NCI-H358 human non-small cell lung cancer cell with KRAS G12C mutation; experiment: Cell Titer-Glo cell viability, NCI-H358 cells (72 h); conditions: Homo sapiens, numeric values
From the text: Effect Example 1: Pharmacodynamic Assay 1 (Determination of the efficacy of the compounds of the present disclosure on NCI-H358 human non-small cell lung cancer cell with KRAS G12C mutation)
The following method was used to determine the effect of the compounds of the present disclosure on tumor cell proliferation.
(§1) For the KRAS G12C subtype, NCI-H358 non-small cell lung cancer cells with KRAS G12C mutation were used to determine the efficacy of the compounds in inhibiting cancer cell viability. NCI-H358 cells were cultured in a DMEM medium containing 10% fetal bovine serum, 100 U penicillin and […] streptomycin. The cells were cultured in an incubator with 5% CO2 at 37° C. Cancer cell viability was evaluated by determining the content of ATP with Cell Titer-Glo® kit (Luminescent Cell Viability Assay kit, please refer to the manufacturer's instructions for use) and evaluating the inhibition of cell growth.
(§2) The experimental method was proceeded in accordance with the steps in the instructions for the kit, and was described briefly as follows. The test compounds were first dissolved in DMSO to prepare stock solutions, and then the stock solutions were subjected to gradient dilution with the culture media of the corresponding cells, thereby preparing test samples. The final concentrations of the compounds were in the range of 30 μM to 0.01 nM. Tumor cells in logarithmic growth phase were seeded into a 96-well cell culture plate at an appropriate density. After the cell culture plate was left overnight in an incubator with 5% CO2 at 37° C., the test compound samples were added thereto and then the cells were further cultured for 72 hours. After the incubation was complete, an appropriate volume of Cell Titer-Glo® reagent was added into each well, and the cells were incubated at 37° C. for 1 to 4 hours. Then, the […] was read on a microplate reader.

[2] = tested on: HCT116 human colon cancer cells with high expression of KRAS G13D; experiment: Cell Titer-Glo cell viability, HCT116 cells (72 h); conditions: HCT-116
From the text: (§3) Effect Example 2: Pharmacodynamic Assay 2 (Determination of the efficacy of the compounds of the present disclosure on HCT116 human colon cancer cells with high expression of KRAS G13D and A549 human non-small cell lung cancer cells with high expression of KRAS G12S)
(§4) The following method was used to determine the effects of the compounds of the present disclosure on tumor cell proliferation.
as §1, with “For” for “For the”, “G13D” for “G12C”, “HCT116 human colon cancer cell was used. For KRAS G12S subtype, A549 human” for “NCI-H358”, “cell was used. The” for “cells with KRAS G12C mutation were used to determine the”, “viability was determined. HCT116 cells or A549” for “viability. NCI-H358”
as §2, with “reader. The percentage inhibition rates of the compounds at each concentration point were calculated by comparing the absorbance values of the sample wells with that of the control group (0.3% DMSO), and then non-linear regression analysis of the concentration of the compound vs inhibition rate was performed by using GraphPad Prism 5 software, thereby obtaining IC50 values indicating the inhibitory effects of the compounds on cell proliferation.” for “reader.”

[3] = tested on: A549 human non-small cell lung cancer cells with high expression of KRAS G12S; experiment: Cell Titer-Glo cell viability, A549 cells (72 h)
From the text: as §3, §4
as §1, with “For” for “For the”, “G13D” for “G12C”, “HCT116 human colon cancer cell was used. For KRAS G12S subtype, A549 human” for “NCI-H358”, “cell was used. The” for “cells with KRAS G12C mutation were used to determine the”, “viability was determined. HCT116 cells or A549” for “viability. NCI-H358”
as §2, with “reader. The percentage inhibition rates of the compounds at each concentration point were calculated by comparing the absorbance values of the sample wells with that of the control group (0.3% DMSO), and then non-linear regression analysis of the concentration of the compound vs inhibition rate was performed by using GraphPad Prism 5 software, thereby obtaining IC50 values indicating the inhibitory effects of the compounds on cell proliferation.” for “reader.”

SMILES	IC50 ([1]; NCI-H358, 72 h)	IC50 [2]	IC50 [3]	IC50 [1]
C=CC(=O)N1CCN(c2c(C#N)c(=O)n(-c3ccccc3C(C)C)c3cc(-c4c(C)ccc5[nH]ncc45)c(Cl)cc23)[C@@H](C)C1 [Compound I-2-1]	1150 nM	> 3000 nM	> 3000 nM	
C=CC(=O)N1CCN(c2ncnc3c(F)c(-c4c(O)cccc4F)c(Cl)cc23)CC1 [ARS-1620, reference compound]		> 3000 nM	> 3000 nM	226 nM
C=CC(=O)N1CCN(c2c(C#N)c(=O)n(-c3ccccc3C(C)C)c3cc(-c4c(C)ccc5[nH]ncc45)c(Cl)cc23)CC1 [Compound I-1]	1170 nM	> 3000 nM	> 3000 nM	
